{"source": "patent US20100086483A1", "about": "“METHOD OF MULTIDETECTOR COMPUTED TOMAGRAPHY” (Gilead Palo Alto, Inc., priority 2008, published 2010)", "key": {"[1]": {"tested_on": "conscious dogs", "assay": "Effects of regadenoson on HR and CBF before and after metoprolol in conscious dogs", "assay_type": "in vivo, dog", "conditions": "for duration of two-fold increase in CBF: in the presence of metoprolol 1.5 mg/kg", "method": "Five mongrel dogs were chronically instrumented for measurements of systemic hemodynamics and coronary blood flow (CBF). The effects of regadenoson (1, 2.5 and 5 μg/kg, IV) on HR and CBF were assessed before and after administration of the β1-adrenergic receptor blocker metoprolol (1.5 mg/kg). Values of peak CBF and the duration of the two-fold increase in CBF above baseline were used to assess Reg-induced coronary vasodilation."}, "[2]": {"tested_on": "conscious dogs", "assay": "Effects of caffeine on regadenoson-induced coronary vasodilation and changes in hemodynamics in conscious dogs (Part II)", "assay_type": "in vivo, dog", "method": "Sixteen chronically instrumented male mongrel dogs weighing from 22-30 kg were used in the study. The animal protocol was approved by the Institutional Animal Care and Use Committee of New York Medical College and conforms to the Guide for the Care and Use of Laboratory Animal by the United States National Institutes of Health.\nDogs were sedated with acepromazine (0.3 mg/kg, IM) and anesthetized with pentobarbital sodium (25 mg/kg, IV). After intubation, dogs were artificially ventilated with room air. A thoracotomy was made in the fifth intercostal space using sterile techniques. A Tygon catheter (Cardiovascular Instruments, Wakefield, Mass.) was inserted into the descending thoracic aorta and another one was inserted into the left atrium. In 9 dogs, an ultrasound flow transducer (Transonic Systems, Ithaca, N.Y.) was placed around the left circumflex coronary artery. A solid-state pressure gauge (P6.5, Konisberg Instruments, Pasadena, Calif.) was placed into the left ventricle through the apex. The chest was closed in layers. The catheters and wires were tunneled subcutaneously and externalized through the skin at the back of the dog's neck. Dogs were allowed to recover from the surgery before experiments were performed, and were trained to lie on a table.\nPhasic arterial pressure was measured by connecting the aortic catheter to a strain gauge transducer (P23 ID, LDS Test and Measurement, Valley View, Ohio). Left ventricular pressures were measured by the solid pressure gauge. CBF (mL/min) was measured from an ultrasound flow transducer using a Transonic flowmeter (T206, Transonic Systems, Ithaca, N.Y.). Two indices were used to describe the regadenoson-induced coronary vasodilation: 1) the maximum increase in CBF and 2) the duration of the 2-fold increase in CBF (the period of time that CBF was elevated to a level ≧2-fold of baseline CBF). All pressure and flow data were acquired and analyzed using a Ponemah System (Version 3.30 or 4.20, LDS Test and Measurement, Valley View, Ohio). MAP and HR were calculated from phasic blood pressure, and LV dP/dtMax was calculated from the left ventricular systolic pressure.\nOn the day of an experiment, a dog was placed on a table, where it lay quietly during the experiment. A catheter was inserted into a peripheral vein in the leg and attached to an infusion line to administer drugs without disturbing the dog. The experiment was begun after MAP, HR and CBF were stable.\nEach dog received an IV injection of 5 μg/kg of regadenoson. […] LVSP, LV dP/dtMax, MAP, HR and CBF were recorded continuously. Blood samples were taken from the left atrial catheter at 1, 3, 5, 15, 30, 45 and 60 min following injections of regadenoson.\nIn 4 dogs, two doses of regadenoson (5 μg/kg, IV) were given 90 min apart (without blood sampling) to determine if there is tachyphylaxis of regadenoson-induced coronary vasodilation.\nThe statistical significance of a difference between the value of a parameter at baseline and at the indicated time point after drug administration was determined using a One-Way Repeated Measures ANOVA followed by Tukey's Test. […] Results with p<0.05 were considered to be significant. […] All data are presented as Mean±SEM."}, "[3]": {"conditions": "Reg 1 μg/kg IV, before metoprolol"}, "[4]": {"conditions": "Reg 2.5 μg/kg IV, before metoprolol"}, "[5]": {"conditions": "Reg 5 μg/kg IV, before metoprolol"}, "[6]": {"conditions": "regadenoson 5 μg/kg IV in the presence of caffeine 1 mg/kg"}, "[7]": {"conditions": "regadenoson 5 μg/kg IV in the presence of caffeine 2 mg/kg"}, "[8]": {"conditions": "regadenoson 5 μg/kg IV in the presence of caffeine 4 mg/kg"}, "[9]": {"conditions": "regadenoson 5 μg/kg IV in the presence of caffeine 10 mg/kg"}, "[10]": {"conditions": "regadenoson 5 μg/kg IV without caffeine (control of caffeine 1 mg/kg group), 0.5 min"}, "[11]": {"conditions": "regadenoson 5 μg/kg IV without caffeine (control of caffeine 1 mg/kg group), 1 min"}, "[12]": {"conditions": "regadenoson 5 μg/kg IV without caffeine (control of caffeine 1 mg/kg group), 2 min"}, "[13]": {"conditions": "regadenoson 5 μg/kg IV without caffeine (control of caffeine 1 mg/kg group), 3 min"}, "[14]": {"conditions": "regadenoson 5 μg/kg IV without caffeine (control of caffeine 1 mg/kg group), 4 min"}, "[15]": {"conditions": "regadenoson 5 μg/kg IV without caffeine (control of caffeine 1 mg/kg group), 5 min"}, "[16]": {"conditions": "regadenoson 5 μg/kg IV without caffeine (control of caffeine 1 mg/kg group), 10 min"}, "[17]": {"conditions": "regadenoson 5 μg/kg IV without caffeine (control of caffeine 1 mg/kg group), 15 min"}, "[18]": {"conditions": "regadenoson 5 μg/kg IV without caffeine (control of caffeine 1 mg/kg group), 20 min"}, "[19]": {"conditions": "regadenoson 5 μg/kg IV without caffeine (control of caffeine 2 mg/kg group), 0.5 min"}, "[20]": {"conditions": "regadenoson 5 μg/kg IV without caffeine (control of caffeine 2 mg/kg group), 1 min"}, "[21]": {"conditions": "regadenoson 5 μg/kg IV without caffeine (control of caffeine 2 mg/kg group), 2 min"}, "[22]": {"conditions": "regadenoson 5 μg/kg IV without caffeine (control of caffeine 2 mg/kg group), 3 min"}}}
{"smiles": "CNC(=O)c1cnn(-c2nc(N)c3ncn([C@@H]4O[C@H](CO)[C@@H](O)[C@H]4O)c3n2)c1", "note": "[Regadenoson, (1-{9-[(4S,2R,3R,5R)-3,4-dihydroxy-5-(hydroxymethyl)oxolan-2-yl]-6-aminopurin-2-yl}pyrazol-4-yl)-N-methylcarboxamide]", "values": [{"measurement": "increase in HR (ΔHR)", "setting": "[1]; Reg 1 μg/kg IV, after metoprolol 1.5 mg/kg IV", "result": "19±4", "unit": "bpm"}, {"measurement": "duration of 2-fold increase in CBF", "setting": "[1]; [3]", "result": "93 ± 22", "unit": "s"}, {"measurement": "increase in HR (ΔHR)", "setting": "[1]; [3]", "result": "49±8", "unit": "bpm"}, {"measurement": "increase in peak CBF (ΔCBF)", "setting": "[1]; [3]", "result": "129 ± 10", "unit": "mL/min"}, {"measurement": "duration of two-fold increase in CBF", "setting": "[1]; Reg 1 μg/kg IV", "result": "71 ± 34", "unit": "s"}, {"measurement": "increase in peak CBF (ΔCBF)", "setting": "[1]; Reg 1 μg/kg IV, in the presence of metoprolol 1.5 mg/kg (NS)", "result": "112 ± 5", "unit": "mL/min"}, {"measurement": "increase in HR (ΔHR)", "setting": "[1]; Reg 2.5 μg/kg IV, after metoprolol 1.5 mg/kg IV", "result": "28±3", "unit": "bpm"}, {"measurement": "duration of 2-fold increase in CBF", "setting": "[1]; [4]", "result": "316 ± 57", "unit": "s"}, {"measurement": "increase in HR (ΔHR)", "setting": "[1]; [4]", "result": "63±5", "unit": "bpm"}, {"measurement": "increase in peak CBF (ΔCBF)", "setting": "[1]; [4]", "result": "149 ± 7", "unit": "mL/min"}, {"measurement": "duration of two-fold increase in CBF", "setting": "[1]; Reg 2.5 μg/kg IV", "result": "215 ± 45", "unit": "s"}, {"measurement": "increase in peak CBF (ΔCBF)", "setting": "[1]; Reg 2.5 μg/kg IV, in the presence of metoprolol 1.5 mg/kg (NS)", "result": "136 ± 16", "unit": "mL/min"}, {"measurement": "increase in HR (ΔHR)", "setting": "[1]; Reg 5 μg/kg IV, after metoprolol 1.5 mg/kg IV", "result": "39±5", "unit": "bpm"}, {"measurement": "duration of 2-fold increase in CBF", "setting": "[1]; [5]", "result": "593 ± 86", "unit": "s"}, {"measurement": "increase in HR (ΔHR)", "setting": "[1]; [5]", "result": "71±7", "unit": "bpm"}, {"measurement": "increase in peak CBF (ΔCBF)", "setting": "[1]; [5]", "result": "174 ± 10", "unit": "mL/min"}, {"measurement": "duration of two-fold increase in CBF", "setting": "[1]; Reg 5 μg/kg IV", "result": "364 ± 86", "unit": "s"}, {"measurement": "increase in peak CBF (ΔCBF)", "setting": "[1]; Reg 5 μg/kg IV, in the presence of metoprolol 1.5 mg/kg (p<0.05)", "result": "138 ± 9", "unit": "mL/min"}, {"measurement": "time regadenoson-increased CBF remained at ≧2-fold baseline levels", "setting": "[2]; in the presence of 1, 2 and 4 mg/kg caffeine", "result": "≥ 3", "unit": "min"}, {"measurement": "decrease in LVSP from baseline", "setting": "[2]; [6]", "result": "9±3", "unit": "%"}, {"measurement": "peak decrease in MAP from baseline", "setting": "[2]; [6]", "result": "13±2", "unit": "%"}, {"measurement": "decrease in LVSP from baseline", "setting": "[2]; [7]", "result": "6±2", "unit": "%"}, {"measurement": "peak decrease in MAP from baseline", "setting": "[2]; [7]", "result": "13±1", "unit": "%"}, {"measurement": "decrease in LVSP from control (p>0.05)", "setting": "[2]; [8]", "result": "1±5", "unit": "%"}, {"measurement": "peak decrease in MAP from baseline", "setting": "[2]; [8]", "result": "2±5", "unit": "%"}, {"measurement": "increase in LVSP from control", "setting": "[2]; [9]", "result": "11±7", "unit": "%"}, {"measurement": "increase in MAP from baseline (insignificant)", "setting": "[2]; [9]", "result": "9±6", "unit": "%"}, {"measurement": "peak increase in HR from baseline", "setting": "[2]; regadenoson 5 μg/kg IV with caffeine 1 mg/kg", "result": "124±12", "unit": "%"}, {"measurement": "peak increase in HR from baseline", "setting": "[2]; regadenoson 5 μg/kg IV with caffeine 2 mg/kg", "result": "109±21", "unit": "%"}, {"measurement": "peak increase in HR from baseline", "setting": "[2]; regadenoson 5 μg/kg IV with caffeine 4 mg/kg", "result": "79±20", "unit": "%"}, {"measurement": "peak increase in HR from baseline", "setting": "[2]; regadenoson 5 μg/kg IV with caffeine 10 mg/kg", "result": "74±16", "unit": "%"}, {"measurement": "HR", "setting": "[2]; [10]", "result": "138 ± 10", "unit": "bpm"}, {"measurement": "MAP", "setting": "[2]; [10]", "result": "97 ± 2", "unit": "mm Hg"}, {"measurement": "HR", "setting": "[2]; [11]", "result": "144 ± 13", "unit": "bpm"}, {"measurement": "MAP", "setting": "[2]; [11]", "result": "93 ± 3", "unit": "mm Hg"}, {"measurement": "HR", "setting": "[2]; [12]", "result": "142 ± 9", "unit": "bpm"}, {"measurement": "MAP", "setting": "[2]; [12]", "result": "92 ± 4", "unit": "mm Hg"}, {"measurement": "HR", "setting": "[2]; [13]", "result": "131 ± 9", "unit": "bpm"}, {"measurement": "MAP", "setting": "[2]; [13]", "result": "92 ± 3", "unit": "mm Hg"}, {"measurement": "HR", "setting": "[2]; [14]", "result": "125 ± 8", "unit": "bpm"}, {"measurement": "MAP", "setting": "[2]; [14]", "result": "94 ± 3", "unit": "mm Hg"}, {"measurement": "HR", "setting": "[2]; [15]", "result": "121 ± 8", "unit": "bpm"}, {"measurement": "MAP", "setting": "[2]; [15]", "result": "96 ± 3", "unit": "mm Hg"}, {"measurement": "HR", "setting": "[2]; [16]", "result": "100 ± 7", "unit": "bpm"}, {"measurement": "MAP", "setting": "[2]; [16]", "result": "97 ± 4", "unit": "mm Hg"}, {"measurement": "HR", "setting": "[2]; [17]", "result": "94 ± 7", "unit": "bpm"}, {"measurement": "MAP", "setting": "[2]; [17]", "result": "96 ± 4", "unit": "mm Hg"}, {"measurement": "HR", "setting": "[2]; [18]", "result": "89 ± 7", "unit": "bpm"}, {"measurement": "MAP", "setting": "[2]; [18]", "result": "96 ± 3", "unit": "mm Hg"}, {"measurement": "HR", "setting": "[2]; [19]", "result": "160 ± 13", "unit": "bpm"}, {"measurement": "MAP", "setting": "[2]; [19]", "result": "89 ± 5", "unit": "mm Hg"}, {"measurement": "HR", "setting": "[2]; [20]", "result": "145 ± 7", "unit": "bpm"}, {"measurement": "MAP", "setting": "[2]; [20]", "result": "89 ± 5", "unit": "mm Hg"}, {"measurement": "HR", "setting": "[2]; [21]", "result": "150 ± 4", "unit": "bpm"}, {"measurement": "MAP", "setting": "[2]; [21]", "result": "91 ± 5", "unit": "mm Hg"}, {"measurement": "HR", "setting": "[2]; [22]", "result": "137 ± 5", "unit": "bpm"}, {"measurement": "MAP", "setting": "[2]; [22]", "result": "91 ± 3", "unit": "mm Hg"}]}
